Patent US9833506B2, “Vaccine—screening method” (priority 2011, dated 2017)
Like-named read-outs stand apart in the source and are kept apart here.

What was measured:
Format in all cases: cell-based, human
[1] = tested on: T cells in PBMC of H1N1 (A/Brisbane/59/07) challenge study subjects; conditions: for SFC/million PBMC (range): IFN-γ ELISPOT, peptide 2 μg/ml, 300,000 PBMC/well, background subtracted; for Positive no(%): percent of subjects responding to the peptide at baseline; for Positive no: subjects responding to the peptide at baseline, of 7 subjects
[2] = tested on: T cells in PBMC of H3N2 (A/Wisconsin/67/05) challenge study subjects; conditions: for SFC/million PBMC (range): IFN-γ ELISPOT, peptide 2 μg/ml, 300,000 PBMC/well, background subtracted; for SFC/million PBMC (range) / CD4 or CD8 dependency: baseline samples; for CD4 or CD8 dependency: second ELISPOT after CD8 depletion, 4 = CD4, 8 = CD8; for Number positive (%): percent of subjects responding to the peptide at baseline; for Number positive: subjects responding to the peptide at baseline, of 8 subjects with peptides identified
[3] = tested on: CD4+ T cell lines killing peptide pulsed autologous EBV-transformed B cell lines; assay: Chromium release assay, perforin-dependent cytotoxicity of CD4+ T cell lines; conditions: CD4+ T cells incubated 2 h with 100 nM concanamycin; 51Cr release; FIG. 7b
[4] = baseline samples, second ELISPOT after CD8 depletion, 4 = CD4, 8 = CD8

Row | Compound | SFC/million PBMC (range) [2] | CD4 or CD8 dependency [2] | Number positive (%) [2] | Number positive [2] | further results
1 | GENGRKTRIAYERMCNIL [NP27] | – | – | – | – | CD4 or CD8 dependency [1]: 8; SFC/million PBMC, days after challenge 7 [1]: 157 SFC/million PBMC; SFC/million PBMC, days after challenge 28 [1]: 10 SFC/million PBMC; SFC/million PBMC, days after challenge −2 [1]: 30 SFC/million PBMC; SFC/million PBMC (range) ([1]; baseline samples): 30 SFC/million PBMC; CD4 or CD8 dependency [1, 4]: 8; Positive no(%) [1]: 14%; Positive no [1]: 1
2 | IAYERMCNILKGKFQTAA (Influenza A virus) [NP28, synthetic peptide of H1N1 influenza A NP protein, amino acid position 217-234] | – | – | – | – | CD4 or CD8 dependency [1]: 8; SFC/million PBMC, days after challenge 7 [1]: 67 SFC/million PBMC; SFC/million PBMC, days after challenge 28 [1]: 10 SFC/million PBMC; SFC/million PBMC, days after challenge −2 [1]: 40 SFC/million PBMC; SFC/million PBMC (range) ([1]; baseline samples): 40 SFC/million PBMC; CD4 or CD8 dependency [1, 4]: 8; Positive no(%) [1]: 14%; Positive no [1]: 1
3 | GKWMRELVLYDKEEIRRI [NP15] | 93 (45-141) SFC/million PBMC | 4 | 26% | 2 | –
4 | KLSDHEGRLIQNSLTIEK [NP08] | 26 SFC/million PBMC | 4 | 13% | 1 | –
5 | TFSVQRSLPFEKSTIMAA [NP58] | 10 SFC/million PBMC | 4 | 13% | 1 | –
6 | RMVLSAFDERRNKYLEEH (Influenza A virus) [NP09, synthetic peptide of H1N1 influenza A NP protein, amino acid position 65-82] | – | – | – | – | CD4 or CD8 dependency [1]: 4; SFC/million PBMC, days after challenge 7 [1]: 187 SFC/million PBMC; SFC/million PBMC, days after challenge 28 [1]: 113 SFC/million PBMC; SFC/million PBMC, days after challenge −2 [1]: 38 SFC/million PBMC; SFC/million PBMC (range) ([1]; baseline samples): 38 SFC/million PBMC; CD4 or CD8 dependency [1, 4]: 4; Positive no(%) [1]: 14%; Positive no [1]: 1
7 | EIRASVGKMIDGIGRFYI [NP05] | 141.5 (35-248) SFC/million PBMC | 4 | 26% | 2 | –
8 | TYQRTRAVLRTGMDPRM (TYQRTRALVRTGMDPRM; Influenza A virus) [NP21, synthetic peptide of H3N2 influenza A NP protein, amino acid position 147-163] | 331 SFC/million PBMC | 8 | 13% | 1 | –
9 | SNLNDATYQRTRALVR (Influenza A virus) [NP20, synthetic peptide of H3N2 influenza A NP protein, amino acid position 141-156] | 391 SFC/million PBMC | 8 | 13% | 1 | –
10 | KFQTAAQRAMVDQVRESR (Influenza A virus) [NP32, synthetic peptide of H3N2 influenza A NP protein, amino acid position 229-246] | 104 SFC/million PBMC | 8 | 13% | 1 | –
11 | QPTFSVQRNLPFDKTTIM [NP52] | – | – | – | – | SFC/million PBMC (range) ([1]; baseline samples): 26 SFC/million PBMC; CD4 or CD8 dependency [1, 4]: 4; Positive no(%) [1]: 14%; CD4 or CD8 dependency ([1]; subject B017(2C)): 4; SFC/million PBMC, days after challenge 7 ([1]; subject B017(2C), day 7): 76 SFC/million PBMC; SFC/million PBMC, days after challenge 28 ([1]; subject B017(2C), day 28): 10 SFC/million PBMC; SFC/million PBMC, days after challenge −2 ([1]; subject B017(2C), day −2): 26 SFC/million PBMC; Positive no [1]: 1
12 | C/C=C/[C@H]1O[C@@](O)([C@@H](C)[C@H](O)[C@H](C)[C@H]2OC(=O)/C(OC)=C/C(C)=C/[C@@H](C)[C@@H](O)[C@@H](CC)[C@@H](O)[C@H](C)C/C(C)=C/C=C/[C@@H]2OC)C[C@@H](O)[C@@H]1C [concanamycin] | – | – | – | – | Sensitivity of CD4 T cell killing of autologous target cells to concanamycin [3]: sensitive
13 | GQTSVQPTFSVQRNLPF [NP57] | 10 SFC/million PBMC | 4 | 13% | 1 | –
14 | PIYRRVDGKWMRELVLY [NP14] | 113 (45-181) SFC/million PBMC | 4 | 26% | 2 | –
15 | VKLYRKLKREITFHGAKE (Influenza A virus) [Peptide M13, synthetic peptide of H1N1 influenza A M protein, amino acid position 97-114] | – | – | – | – | CD4 or CD8 dependency [1]: 4; SFC/million PBMC, days after challenge 7 [1]: 70 SFC/million PBMC; SFC/million PBMC, days after challenge 28 [1]: 10 SFC/million PBMC; SFC/million PBMC, days after challenge −2 [1]: 30 SFC/million PBMC; SFC/million PBMC (range) ([1]; baseline samples): 41 (30-52) SFC/million PBMC; CD4 or CD8 dependency [1, 4]: 4; Positive no(%) [1]: 28%; CD4 or CD8 dependency ([1]; subject B017(2C)): 4; SFC/million PBMC, days after challenge 7 ([1]; subject B017(2C), day 7): 316 SFC/million PBMC; SFC/million PBMC, days after challenge 28 ([1]; subject B017(2C), day 28): 33 SFC/million PBMC; SFC/million PBMC, days after challenge −2 ([1]; subject B017(2C), day −2): 52 SFC/million PBMC; Positive no [1]: 2
16 | IKHENRMVLASTTAKAM (Influenza A virus) [Peptide M25, synthetic peptide of H3N2 influenza A M protein, amino acid position 173-189] | 118 SFC/million PBMC | 4 | 13% | 1 | –
17 | LKREITFHKAKEIALSY [Peptide M15] | 67 (35-96) SFC/million PBMC | 4 | 38% | 3 | –
18 | HRSHRQMVATTNPLIKH [Peptide M23] | 158 SFC/million PBMC | 4 | 13% | 1 | –
